Data published in patent publication US11844853B2, “Antiperspirant composition” (Conopco, Inc., priority 2018, dated 2023).

Assay: Percentage flow rate reduction (PFRR) of artificial sweat across a membrane coated with antiperspirant active
Details: metal deposited 0.004 g/membrane; 12 micron pore size, 50 mm dia.; flow of artificial sweat under 60 cm constant water bar pressure (5.9 kPa)
Description: The above solutions were deposited on a membrane as give below such that the metal deposited was 0.004 g/membrane.
Whatman cellulose nitrate membranes (AE 100, 12 micron nominal pore size, 50 mm dia.) were coated with required volume of desired % w/v or w/w solution of ACH in water. The coated membranes were taken out and kept in air for 30 mins. Then the membranes were put into a closed chamber having 250 ml 10% (v/v) ammoniacal solution inside to generate an ammoniacal blanketing at 25-30° C. temperature, for 4 hrs to neutralize the active. Then the neutralized membranes were kept in air for 6 hrs to remove excess moisture and were used for flow rate assessment. The membranes were fitted in the Millipore filtration set up and flow rate of artificial sweat under 60 cm constant water bar pressure was measured. The selected water bar pressure corresponds to 5.9 kPa, which is reported as the average secretory pressure of the sweat glands (avg.SPSG)
Whatman cellulose nitrate membranes (AE 100, 12 micron nominal pore size, 50 mm dia.) were coated with required volume of desired % w/v or w/w solution of zinc complex in ethanol. The coated membranes were taken out and kept in air for 15 mins. […]
The percentage flow rate reduction was calculated using the equation:

Substance	Avg % PFRR N = 8 [%]
Aluminium chlorohydrate [Example A]	66
Zinc lysine complex [Example C, Zinc lysine complex [Zn (lysine)2. Cl2.2H2O]]	10
